Measured values from article PMC7204994 (Frontiers in Pharmacology, 2020).

Legend:
LIMK1 [1] = target: T1, LIMK1 (Homo sapiens, UniProt P53667); assay: in vitro GST-cofilin phosphorylation by recombinant LIMK1, Western blot, […] compound; type: biochemical; set-up: recombinant human LIMK1 (Millipore #14-656)
LIMK1 [2] = target: T1, LIMK1; assay: cell-free LIMK1 biochemical assay; conditions: cited from earlier work

T1 sequence (P53667 whole entry): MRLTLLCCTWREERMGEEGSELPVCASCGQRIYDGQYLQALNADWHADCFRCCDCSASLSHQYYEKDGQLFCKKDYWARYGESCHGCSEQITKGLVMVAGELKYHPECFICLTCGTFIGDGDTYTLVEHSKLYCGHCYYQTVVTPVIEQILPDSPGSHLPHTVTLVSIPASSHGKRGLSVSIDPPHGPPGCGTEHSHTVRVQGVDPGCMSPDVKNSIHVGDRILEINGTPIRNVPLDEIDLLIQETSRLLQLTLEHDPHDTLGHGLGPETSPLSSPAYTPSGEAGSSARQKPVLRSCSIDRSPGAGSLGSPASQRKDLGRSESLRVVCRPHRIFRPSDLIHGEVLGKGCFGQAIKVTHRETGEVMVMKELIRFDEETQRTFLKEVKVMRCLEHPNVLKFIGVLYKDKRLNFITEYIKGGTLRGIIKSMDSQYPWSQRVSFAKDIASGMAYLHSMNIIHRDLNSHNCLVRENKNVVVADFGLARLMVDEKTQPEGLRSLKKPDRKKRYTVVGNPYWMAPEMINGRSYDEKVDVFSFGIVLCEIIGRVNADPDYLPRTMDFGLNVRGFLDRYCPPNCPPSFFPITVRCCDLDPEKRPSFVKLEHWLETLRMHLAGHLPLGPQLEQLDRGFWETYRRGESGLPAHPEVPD

For Cn1cc(-c2[nH]c3cc(NC(=O)C(N)C4CCCCC4)cc4c3c2C=NNC4=O)cn1 (centres unmarked) [PF0477736], the “in vitro GST-cofilin phosphorylation by recombinant LIMK1, Western blot, 10 μM c” value (LIMK1 [1]) was “showed that PF0477736 is indeed able to directly inhibit LIMK”.

For Cc1c[nH]c2ncnc(-c3ccc(NC(=O)N(CCN)c4ccc(Cl)cc4)c(F)c3)c12 [SR10905, 1-(2-aminoethyl)-1-(4-chlorophenyl)-3-(2-fluoro-4-(5-methyl-7H-pyrrolo[2,3-d]pyrimidin-4-yl)phenyl)urea], the IC50 (LIMK1 [2]) is given as 15 nM.
